For eleven compounds, IC50 results are on record in ChEMBL document CHEMBL3046891, “Potent antimalarial activity of newly synthesized substituted chalcone analogs in vitro” (Med Chem Res, 2009).

SMILES strings stand for the structures. Values after ≈ are worked out from the molar mass of the structure shown.

The assay concerns Plasmodium falciparum. Description: Antimalarial activity against blood-stage Plasmodium falciparum 3D7 after 48 hr by Giemsa staining method. The format is functional, organism-based. The following applies: 3D7, 48 h.
Broadly, the IC50 is the concentration at which inhibition is half-maximal. A higher IC50 goes with lower potency. In turn, `COc1ccc(/C=C/C(=O)c2ccc(-n3cncn3)cc2)cc1` showed a half-maximal inhibitory concentration (IC50) of 4.56 µg/mL (≈ 14.9 µM).

`COc1cc(/C=C/C(=O)c2ccc(-n3cccc3)cc2)cc(OC)c1OC` yielded an IC50 of 2.03 µg/mL (≈ 5.59 µM).

As for `COc1ccc(/C=C/C(=O)c2ccc(-n3cccc3)cc2)cc1`, the midpoint of inhibition, the IC50, lay at 1.61 µg/mL (≈ 5.31 µM).

On to `COc1ccc(/C=C/C(=O)c2ccc(N3CCCCC3)cc2)cc1OC`, for which inhibition was half-maximal at 3.13 µg/mL (≈ 8.91 µM) (IC50).

As for `COc1ccc(/C=C/C(=O)c2ccc(N3CCCC3)cc2)cc1`, the 50% inhibitory concentration (IC50) was found to be 6.3 µg/mL (≈ 20.5 µM).

On to `COc1cc(/C=C/C(=O)c2ccc(N3CCCC3)cc2)cc(OC)c1OC`, for which 13 µg/mL (≈ 35.4 µM) corresponded to half-maximal inhibition (IC50).

In turn, `COc1cc(/C=C/C(=O)c2ccc(-n3ccnc3)cc2)cc(OC)c1OC` displayed an IC50 of 2.48 µg/mL (≈ 6.81 µM).

On to `O=C(/C=C/c1cc2ccccc2nc1Cl)c1ccc(N2CCOCC2)cc1`, for which the 50% inhibitory concentration (IC50) was found to be 17 µg/mL (≈ 45 µM).

In turn, `COc1ccc(/C=C/C(=O)c2ccc(N3CCOCC3)cc2)cc1` yielded a half-inhibitory concentration (IC50) of 7.9 µg/mL (≈ 24.4 µM).

Compound `COc1cc(/C=C/C(=O)c2ccc(N3CCNCC3)cc2)cc(OC)c1OC` came in with an IC50 of 9 µg/mL (≈ 23.5 µM).

In turn, `COc1cc(/C=C/C(=O)c2ccc(N3CCCC3)cc2)cc(OC)c1` registered a half-maximal inhibitory concentration (IC50) of 8.43 µg/mL (≈ 25 µM).
